Assay results: patent publication US5656637A, “Thiazole derivatives” (Yamanouchi Pharmaceutical Co., Ltd., priority 1990, dated 1997)
Like-named read-outs stand apart in the source and are kept apart here.

Columns and labels:
5-HT3 receptor [1] = target: T1, 5-HT3 receptor (Rattus norvegicus, UniProt P35563); test: Effects of 5-HT3 receptor antagonists on the action of the compound of the present invention (decreases in heart rate and blood pressure); type: in vivo, rat (male Wistar); settings: GR38032F 30 μg/kg i.v. or ICS 205-930 0.1-1 μg/kg i.v., 10 minutes before the compound of the present invention
T1 construct: Male Wistar rats, 9 weeks old, were anesthetized with urethane; from tissue; host or cells: whole animal in vivo: anesthetized male Wistar rat (endogenous receptor; tissue not given)
T1 sequence (P35563 24-483): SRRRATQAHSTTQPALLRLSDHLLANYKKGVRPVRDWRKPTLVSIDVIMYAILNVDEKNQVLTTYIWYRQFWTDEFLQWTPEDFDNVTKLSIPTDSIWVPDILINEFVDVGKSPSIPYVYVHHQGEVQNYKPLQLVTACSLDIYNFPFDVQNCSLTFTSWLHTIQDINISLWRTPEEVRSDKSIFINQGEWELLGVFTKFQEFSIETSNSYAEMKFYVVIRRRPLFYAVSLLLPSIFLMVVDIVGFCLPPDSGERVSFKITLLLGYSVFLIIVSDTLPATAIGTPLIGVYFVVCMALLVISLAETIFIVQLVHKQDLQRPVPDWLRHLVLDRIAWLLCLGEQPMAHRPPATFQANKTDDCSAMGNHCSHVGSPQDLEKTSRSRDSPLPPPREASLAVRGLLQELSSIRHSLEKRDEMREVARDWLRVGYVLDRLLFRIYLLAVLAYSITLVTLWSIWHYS
Method: Male Wistar rats, 9 weeks old, were anesthetized with urethane 1 g/kg i.p. and the blood pressure and the heart rate were determined under artificial ventilation. […] In addition, it was confirmed by using 5-HT3 receptor antagonists that the changes caused by administration of the compound of the present invention were 5-HT3 receptor-mediated responses.
2) Effects of 5-HT3 receptor antagonists on the action of the compound of the present invention
GR38032F (30 μg/kg i.v.) or ICS 205-930 (0.1-1 μg/kg i.v.), 10 minutes before administration of the compound of the present invention.

5-HT3 receptor [2] = target: T1, 5-HT3 receptor; test: 5-HT3 receptor stimulating action (Bezold-Jarisch reflex evoking action) in anesthetized rat, i.v.; type: in vivo, rat (male Wistar); settings: for ED50: iv, read-out: BJ reflex evoking activity ED50
Method: Male Wistar rats, 9 weeks old, were anesthetized with urethane 1 g/kg i.p. and the blood pressure and the heart rate were determined under artificial ventilation.
1) 5-HT3 receptor stimulating action (Bezold-Jarisch reflex evoking action)

Cc1nccn1CC1CCc2c(c3ccccc3n2C)C1=O (racemic) [GR38032F]
inhibition by 5-HT3 receptor antagonist of the decreases in heart rate and blood pressure induced by the compound of the present invention (5-HT3 receptor [1]): competitively inhibited

Cc1[nH]c2ccc(O)cc2c1CCN [2-Methylserotonin, 2-methylserotonin]
BJ reflex evoking activity Emax (maximal bradycardiac response) (5-HT3 receptor [2]; i.v., anesthetized rat): 259.0 beats/min
ED50 (5-HT3 receptor [2]; rat): 0.0374 mg/kg

COc1ccccc1Nc1nc2c(s1)CN(C)CC2.O=C(O)/C=C/C(=O)O [Example 1, 2-(o-methoxyanilino)-5-methyl-4,5,6,7-tetrahydrothiazolo[5,4-c]pyridine fumarate]
BJ reflex evoking activity Emax (maximal bradycardiac response) (5-HT3 receptor [2]; i.v., anesthetized rat): 205.8 beats/min
Bezold-Jarisch reflex evoking activity, potency relative to serotonin (5-HT3 receptor [2]; i.v., rat, versus serotonin): about 5 fold
ED50 (5-HT3 receptor [2]; anesthetized rat): 0.00301 mg/kg

CN1C2CCC1CC(OC(=O)c1c[nH]c3ccccc13)C2 (stereo not shown) [ICS 205-930]
inhibition by 5-HT3 receptor antagonist of the decreases in heart rate and blood pressure induced by the compound of the present invention (5-HT3 receptor [1]): competitively inhibited
